Test results as given in patent US12090220B2, “Efficient sunscreen compositions with diethylamino hydroxybenzoyl hexyl benzoate, butyl methoxydibenzoylmethane and organic particulate UV filter” (BASF SE, priority 2019, dated 2024).
Structures can show the parent of a compound that is named as a salt.

Assay: not given
Conditions: general description of the UV filter; cited from earlier work

**Q.** For `COc1ccc(C(=O)CC(=O)c2ccc(C(C)(C)C)cc2)cc1` [BMDBM, 1-(4-(1,1-dimethylethyl)phenyl)-3-(4-methoxyphenyl)propane-1,3-dione], which absorption maximum is on record?
**A.** 357 nm

**Q.** For `CCCCCCOC(=O)c1ccccc1C(=O)c1ccc(N(CC)CC)cc1O` [DHHB, hexyl 2-[4-(diethylamino)-2-hydroxybenzoyl]benzoate], which absorption maximum is on record?
**A.** 354 nm

**Q.** Which absorption maximum does the source give for `CCCCC(CC)COC(=O)/C=C/c1ccc(OC)cc1` (centres unmarked) [ethylhexyl methoxy cinnamate, 2-Ethylhexyl-(2E)-3-(4-methoxyphenyl)acrylate] here?
**A.** 310 nm

**Q.** Which absorption maximum does the source give for `c1ccc(-c2ccc(-c3nc(-c4ccc(-c5ccccc5)cc4)nc(-c4ccc(-c5ccccc5)cc4)n3)cc2)cc1` [tris-biphenyl triazine, 2,4,6-Tris(biphenyl-4-yl)-1,3,5-triazine] here?
**A.** 310 nm

Assay: Measurement of interfacial tension (polarity index) of emollients
Format: physicochemical
Conditions: interfacial tension emollient/water, Tensimat Densimat TD2000
Description: The term “polarity index” refers to non-polar or polar oils. Non-polar oils are mainly based on hydrocarbons and lack an electronegative element, such as oxygen. In contrast, polar oils contain heteroatoms that differ in electronegativity, which results in a dipole moment. However, such oils are still insoluble in water, i.e. hydrophob. The polarity index can be determined by measuring the interfacial tension between the respective oil and water.
Interfacial tension of the respective emollients as listed below was measured using a Tensimat Densimat TD2000.

**Q.** With `CCCCOC(=O)CCCCC(=O)OCCCC` [dibutyl adipate] as the compound, how does the polarity index read?
**A.** 14 mN/m

**Q.** Which polarity index does the source give for `CC(C)OC(=O)CCCCC(=O)OC(C)C` [diisopropyl adipate] here?
**A.** 12 mN/m

**Q.** Which polarity index does the source give for `CC(C)OC(=O)CCCCCCCCC(=O)OC(C)C` [diisopropyl sebacate] here?
**A.** 19 mN/m

**Q.** Which polarity index does the source give for `CCCCCCCCCCC(CO)CCCCCCCC` (centres unmarked) [octyldodecanol] here?
**A.** 25 mN/m

**Q.** For `O=C(OCCc1ccccc1)c1ccccc1` [phenethyl benzoate], which polarity index is on record?
**A.** 19 mN/m

**Q.** Which polarity index does the source give for `CCCCOC(=O)CC(O)(CC(=O)OCCCC)C(=O)OCCCC` [tributyl citrate] here?
**A.** 10 mN/m

**Q.** For `CCOC(=O)CC(O)(CC(=O)OCC)C(=O)OCC` [triethyl citrate], which polarity index is on record?
**A.** 7 mN/m
